According to patent US10112933B2, “Methods and compositions for treatment of fibrosis” (Baylor College of Medicine, priority 2013, dated 2018):

Columns and labels:
Stat1 (pY701) = target: T1, Stat1 (pY701) (Homo sapiens, UniProt P42224); assay: Immunoblot: IFN-γ-mediated phosphorylation of Stat1 in HepG2 cells; format: cell-based; details: HepG2, compound 300 μM, 1 hour
T1 construct: endogenous in cells; host or cells: HepG2
T1 sequence (P42224 1-750): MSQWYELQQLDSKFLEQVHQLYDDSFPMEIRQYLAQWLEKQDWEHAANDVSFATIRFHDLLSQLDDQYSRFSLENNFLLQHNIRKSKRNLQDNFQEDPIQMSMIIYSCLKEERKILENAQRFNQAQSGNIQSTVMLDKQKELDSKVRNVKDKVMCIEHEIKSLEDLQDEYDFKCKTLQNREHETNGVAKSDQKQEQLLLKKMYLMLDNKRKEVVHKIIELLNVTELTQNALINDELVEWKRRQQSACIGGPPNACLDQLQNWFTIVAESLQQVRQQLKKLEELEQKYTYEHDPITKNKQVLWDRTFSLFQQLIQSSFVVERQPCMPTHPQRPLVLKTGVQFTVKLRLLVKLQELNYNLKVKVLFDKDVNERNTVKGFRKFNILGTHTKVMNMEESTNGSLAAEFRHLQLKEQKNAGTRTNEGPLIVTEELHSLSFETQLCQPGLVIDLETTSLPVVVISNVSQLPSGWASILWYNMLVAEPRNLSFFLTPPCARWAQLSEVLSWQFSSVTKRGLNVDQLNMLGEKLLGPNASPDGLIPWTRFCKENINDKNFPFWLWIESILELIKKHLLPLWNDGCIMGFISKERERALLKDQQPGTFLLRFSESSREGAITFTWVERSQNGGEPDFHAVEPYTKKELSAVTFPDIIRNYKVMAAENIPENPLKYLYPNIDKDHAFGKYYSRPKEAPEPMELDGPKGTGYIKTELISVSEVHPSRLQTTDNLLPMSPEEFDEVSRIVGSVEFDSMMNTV
Protocol: HepG2 cells were pretreated with DMSO alone or DMSO containing each of the compounds at a concentration of 300 μM for 60 min. Cells were then stimulated with IFN-γ (30 ng/ml) for 30 min. Protein extracts of cells were separated by SDS-PAGE and immunoblotted serially with antibodies to pStat1, total Stat1 and β-actin. Blots were stripped between each immunoblotting. The results shown are representative of 2 or more experiments.
Immunoblot assay. The human hepatocellular carcinoma cell line (HepG2) was grown in 6-well plates under standard conditions. Cells were pretreated with compounds (0, 1, 3, 10, 30, 100 and 300 uM) for 1 hour then stimulated under optimal conditions with either interferon gamma (IFN-γ; 30 ng/ml for 30 min) to activate Stat1 or interleukin-6 (IL-6; 30 ng/ml for 30 min) to activate Stat3 (30-31). Cultures were then harvested and proteins extracted using high-salt buffer, as described (Shao et al., 2006). Briefly, extracts were mixed with 2× sodium dodecyl sulfate (SDS) sample buffer (125 mmol/L Tris-HCL pH 6.8; 4% SDS; 20% glycerol; 10% 2-mercaptoethanol) at a 1:1 ratio and heated for 5 minutes at 100° C. Proteins (20 μg) were separated by 7.5% SDS-PAGE and transferred to polyvinylidene fluoride (PVDF) membrane (Millipore, Waltham, Mass.) and immunoblotted. Prestained molecular weight markers (Biorad, Hercules, Calif.) were included in each gel. Membranes were probed serially with antibody against Stat1 pY^701 or Stat3 pY^705 followed by antibody against Stat1 or Stat3 (Transduction labs, Lexington, Ky.) then antibody against β-actin (Abcam, Cambridge, Mass.). Membranes were stripped between antibody probing using Restore™ Western Blot Stripping Buffer (Thermo Fisher Scientific Inc., Waltham, Mass.) per the manufacturer's instructions. Horseradish peroxidase-conjugated goat-anti-mouse IgG was used as the secondary antibody (Invitrogen Carlsbad, Calif.) and the membranes were developed with enhanced chemiluminescence (ECL) detection system (Amersham Life Sciences Inc.; Arlington Heights, Ill.).
EXP IIC. Ligand-mediated pStat3 and pStat1 inhibition assays. […] Briefly, human hepatocellular carcinoma cells (HepG2) are grown in 6-well plates and pretreated with compounds (0, 0.1, 0.3, 1, 3, 10, 30, 100 μM) for 1 hour then stimulated under optimal conditions with either interleukin-6 (IL-6; 30 ng/ml for 30 min) to activate Stat3 or interferon gamma (IFN-γ; 30 ng/ml for 30 min) to activate Stat1. Cells are harvested and proteins extracted using high-salt buffer, mixed with 2× sodium dodecyl sulfate (SDS) sample buffer (125 mmol/L Tris-HCL pH 6.8; 4% SDS; 20% glycerol; 10%2-mercaptoethanol) at a 1:1 ratio then heated for 5 minutes at 100° C. Proteins (20 μg) are separated by 7.5% SDS-PAGE and transferred to polyvinylidene fluoride (PVDF) membrane (Millipore, Waltham, Mass.) and immunoblotted. Membranes are probed serially with antibody against Stat1 pY701 or Stat3 pY705 followed by antibody against Stat1 or Stat3 (Transduction labs, Lexington, Ky.) then antibody against β-actin (Abcam, Cambridge, Mass.). Membranes are stripped between antibody probings using Restore™ Western Blot Stripping Buffer (Thermo Fisher Scientific Inc., Waltham, Mass.) per the manufacturer's instructions. Horseradish peroxidase-conjugated goat-anti-mouse IgG is used as the secondary antibody (Invitrogen Carlsbad, Calif.) and the membranes are developed with enhanced chemiluminescence (ECL) detection system (Amersham Life Sciences Inc.; Arlington Heights, Ill.). Band intensities are quantified by densitometry. The value of each pStat3 band is divided by its corresponding total Stat3 band intensity; the results are normalized to the DMSO-treated control value. This value was plotted as a function of the log compound concentration. The best-fitting curve is determined using 4-Parameter Logistic Model/Dose Response/XLfit 4.2, IDBS software and was used to calculate the IC50 value.

Stat3:hSIE complex = target: T2, Stat3:hSIE complex (Homo sapiens, UniProt P40763); assay: Electrophoretic mobility shift assay (Stat3 DNA binding, hSIE probe); format: biochemical; details: extracts of IL-6-stimulated HepG2 cells, compound 300 μM
T2 construct: endogenous in cells; host or cells: HepG2
Protocol: Electrophoretic mobility shift assays were performed using whole-cell extracts prepared from HepG2 cells without and with stimulation with IL-6 (30 ng/ml) for 30 min. Protein (20 μg) was incubated with radiolabeled duplex oligonucleotide (hSIE) and DMSO without or with the indicated compounds (300 uM) for 60 minutes at 37° C. then separated by PAGE. The gel was dried and autoradiographed; the portion of the gel corresponding to the Stat3-bound hSIE band is shown. Data shown are representative of 2 studies.
Electrophoretic Mobility Shift Assay (EMSA): EMSA was performed using the hSIE radiolabeled duplex oligonucleotide as a probe as described (Tweardy et al., 1995). Briefly, high salt extracts were prepared from HepG2 cells incubated without or with IL-6 (30 ng/ml) for 30 minutes. Protein concentration was determined by Bradford Assay and 20 ug of extract was incubated with compound (300 uM) for 60 minutes at 37° C. […] Gels were dried and autoradiographed.
Once in the nucleus, Stat3 dimers bind to specific DNA elements to activate and, in some instances, repress gene transcription. […] Compounds that bind to the phosphopeptide-binding site of Stat3 might be expected to do the same. […]

T2 sequence (P40763 2-770 limits assumed, one chain of several): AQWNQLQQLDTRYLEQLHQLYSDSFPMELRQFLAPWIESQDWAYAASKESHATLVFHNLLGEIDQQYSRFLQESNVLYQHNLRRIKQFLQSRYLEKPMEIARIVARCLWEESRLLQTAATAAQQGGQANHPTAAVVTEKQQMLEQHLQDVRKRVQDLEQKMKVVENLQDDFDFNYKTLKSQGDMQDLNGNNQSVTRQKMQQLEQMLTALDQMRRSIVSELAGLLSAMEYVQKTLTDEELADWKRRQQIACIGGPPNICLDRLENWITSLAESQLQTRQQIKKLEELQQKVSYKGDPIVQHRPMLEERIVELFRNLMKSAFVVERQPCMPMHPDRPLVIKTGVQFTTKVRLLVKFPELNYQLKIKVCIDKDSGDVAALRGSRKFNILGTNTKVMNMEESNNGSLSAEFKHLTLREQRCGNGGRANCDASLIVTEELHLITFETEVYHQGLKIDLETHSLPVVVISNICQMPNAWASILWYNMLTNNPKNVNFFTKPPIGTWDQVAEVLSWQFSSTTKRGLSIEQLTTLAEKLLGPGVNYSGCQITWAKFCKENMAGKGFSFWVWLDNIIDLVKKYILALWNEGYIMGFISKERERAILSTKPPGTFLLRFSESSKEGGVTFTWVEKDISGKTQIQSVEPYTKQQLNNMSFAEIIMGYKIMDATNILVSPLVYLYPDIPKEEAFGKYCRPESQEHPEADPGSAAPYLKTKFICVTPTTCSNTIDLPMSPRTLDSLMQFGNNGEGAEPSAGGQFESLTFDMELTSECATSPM

SMILES | Stat1 phosphorylation after IFN-γ stimulation (Stat1 (pY701)) | amount of hSIE shifted (Stat3:hSIE band intensity) (Stat3:hSIE complex)
CCOc1cc(C=C2C(=O)c3ccccc3C2=O)cc(Cl)c1OCc1cccc(C(=O)O)c1 [Cpd3-2, 3-({2-chloro-4-[(1,3-dioxo-1,3-dihydro-2H-inden-2-ylidene)methyl]-6-ethoxyphenoxy}methyl)benzoic acid] | did not | –
O=C(O)c1ccc(C=CC(=O)c2ccc3c(c2)OCCO3)cc1 [Cpd3, 4-[3-(2,3-dihydro-1,4-benzodioxin-6-yl)-3-oxo-1-propen-1-yl]benzoic acid] | did not | reduced the amount of hSIE shifted by half or greater
CCN1C(=O)C(=Cc2ccc(-c3cc(C(=O)O)ccc3Cl)o2)C(=O)N(CC)C1=S [Cpd30-12, 4-chloro-3-{5-[(1,3-diethyl-4,6-dioxo-2-thioxotetrahydro-5(2H)-pyrimidinylidene)methyl]-2-furyl}benzoic acid] | blocked Stat1 phosphorylation | –
